Measured values as given in patent US20240208979A1, “sGC STIMULATORS” (Tisento Therapeutics Inc., priority 2021, published 2024).

How the values were obtained:
[1] = target: T1, human α2β1 sGC isozyme (Homo sapiens, UniProt P33402+Q02153); test: cGMP assay on human α2β1 sGC isozyme stably expressed in CHO-K1 cells; assay type: cell-based; conditions: 10 μM DETA-NONOate, 20 min, cGMP content, geometrical mean
T1 construct: host or cells: CHO-K1
T1 sequence (P33402 1-732): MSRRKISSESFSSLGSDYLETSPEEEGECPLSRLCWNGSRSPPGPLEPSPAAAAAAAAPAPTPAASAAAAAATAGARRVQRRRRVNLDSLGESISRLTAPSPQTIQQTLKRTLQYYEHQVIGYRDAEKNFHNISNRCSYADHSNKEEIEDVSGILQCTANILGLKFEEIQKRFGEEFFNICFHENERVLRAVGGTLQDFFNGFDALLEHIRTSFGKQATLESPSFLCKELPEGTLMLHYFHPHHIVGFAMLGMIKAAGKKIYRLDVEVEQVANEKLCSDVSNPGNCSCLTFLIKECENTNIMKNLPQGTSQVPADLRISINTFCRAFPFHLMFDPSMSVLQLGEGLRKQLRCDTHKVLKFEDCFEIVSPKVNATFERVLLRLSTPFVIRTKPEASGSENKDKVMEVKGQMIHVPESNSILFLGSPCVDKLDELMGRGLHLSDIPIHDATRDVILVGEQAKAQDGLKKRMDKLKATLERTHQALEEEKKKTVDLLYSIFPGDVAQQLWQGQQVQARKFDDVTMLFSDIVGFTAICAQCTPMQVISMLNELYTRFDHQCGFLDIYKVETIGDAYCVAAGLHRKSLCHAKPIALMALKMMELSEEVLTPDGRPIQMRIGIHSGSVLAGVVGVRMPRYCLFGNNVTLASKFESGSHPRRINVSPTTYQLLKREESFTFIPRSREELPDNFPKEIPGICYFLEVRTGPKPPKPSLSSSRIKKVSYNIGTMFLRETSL
T1 sequence (Q02153 1-619): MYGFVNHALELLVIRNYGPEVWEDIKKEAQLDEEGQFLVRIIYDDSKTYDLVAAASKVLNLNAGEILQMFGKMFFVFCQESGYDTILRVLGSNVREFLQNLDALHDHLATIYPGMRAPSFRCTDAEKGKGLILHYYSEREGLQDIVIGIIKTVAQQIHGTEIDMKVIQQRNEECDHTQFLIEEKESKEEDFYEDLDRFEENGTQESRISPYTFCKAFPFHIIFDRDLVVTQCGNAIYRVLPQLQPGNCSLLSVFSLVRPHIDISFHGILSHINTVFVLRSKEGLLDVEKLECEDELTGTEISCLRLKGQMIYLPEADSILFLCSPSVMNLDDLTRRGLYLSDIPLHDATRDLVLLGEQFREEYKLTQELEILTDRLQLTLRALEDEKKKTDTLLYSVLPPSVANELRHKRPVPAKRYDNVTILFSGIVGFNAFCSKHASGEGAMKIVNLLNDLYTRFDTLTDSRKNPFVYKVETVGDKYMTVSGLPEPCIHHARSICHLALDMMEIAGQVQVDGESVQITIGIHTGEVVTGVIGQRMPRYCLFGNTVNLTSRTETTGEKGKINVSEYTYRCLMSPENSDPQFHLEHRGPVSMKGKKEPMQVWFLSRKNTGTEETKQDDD
Experimental: sGC stimulators were dissolved in DMSO as a 10 mM solution and stored at −20° C. To achieve desired test concentrations, stock concentrations were serially diluted into DMSO and then diluted to the appropriate concentration in assay buffer.
CHO-K1 cells stably transfected with human α2β1 sGC isozyme (generated by GenScript for Ironwood) were cultured in F-12K medium (ATCC catalog #30-2004) with 10% fetal calf serum, 4 μg/mL puromycin (Gibco catalog #A11138-03) and 0.4 mg/mL of geneticin (Gibco catalog #10131-027) in a 95% humidified atmosphere containing 5% CO2 in air at 37° C. For GC activity assays, cells were seeded in 384 well poly-D-lysine coated flat bottom plates (Fisher Scientific #08-774-311) in either 50 μL or 70 μL medium at a density of either 3×10^4 cells/well or 15×10^3, respectively. Cells were incubated for 24 hours at 37° C. in a humidified chamber supplemented with 5% CO2. […]
Following incubation with compound, assay buffer was removed and 50 μL of ice-cold 10% acetic acid+150 ng/mL internal standard (+3 cGMP) was added to each well. […] Following centrifugation at 4° C. for 5 min at 1000×g to pellet cell debris, the supernatant was transferred to a clean plate and the samples analyzed for cGMP content.
Data were analyzed with a 4-parameter fit (log(agonist) vs. response—variable slope) using GraphPad Prism Software v.8. […]

[2] = system: normotensive rats; test: Blood pressure effects in normotensive rats following acute oral dose; assay type: in vivo, rat; conditions: Milli-Q water
Experimental: Male, normotensive Sprague Dawley rats were purchased from Charles River Laboratories. These rats have indwelling femoral artery catheters installed. Animals were harnessed to a tether system and attached to pressure transducers to monitor cardiovascular (CV) parameters, specifically mean arterial pressure (MAP) and heart rate (HR). Animals were acclimated to the system overnight and baseline CV parameters collected. The conscious, freely moving rats were then administered a single oral dose of the Compound I-14 (doses generated from the sodium salt of Compound 14) in Milli-Q water at 1, 3, 10 and 30 mg/kg. A blood sample was collected from each animal through the catheter line at pre-dose and 2 hours post-dose for compound concentration quantification. Hemodynamic measures were recorded for ten hours post-dose. […]
ADInstruments LabChart (v8) was used to monitor and export hemodynamic data. Blood pressure and heart rate were continuously monitored, and data were collected at 1000 data points per second then averaged into 10-minute bins for analysis. Change from baseline MAP (ΔBMAP) and HR (ΔBHR) were calculated using the pre-dose baseline averaged over the 1-hr period prior to dosing using Microsoft Excel for Microsoft 365. […]
Statistical analyses were performed in Graphpad Prism (v8). […] Vehicle-adjusted HR (ΔVHR) was calculated in a similar manner to ΔVMAP. […]

EC50 [1]: ≤ 100 nM
Structure (SMILES): Cc1cc(F)c(Cc2nc(-c3ncc(F)c(O)n3)cn3ccnc23)cc1F [Compound I-14, 5-fluoro-2-(8-(2,5-difluoro-4-methylbenzyl)imidazo[1,2-a]pyrazin-6-yl)pyrimidin-4-ol]
effect on MAP from baseline and as adjusted from vehicle ([2]; 3, 10, and 30 mg/kg single oral dose): lowered MAP
change from baseline MAP (ΔBMAP) compared with vehicle-treated rats ([2]; single oral dose 1, 3, 10 and 30 mg/kg, 2-way ANOVA significant): greater decrease in MAP
